Test results reported in US9024038B2 (Purdue Research Foundation, priority 2010, dated 2015).
Read-outs that look alike come from different tables or passages of the source.

Columns and labels:
[1] = test system: HIV-1LAI; assay: Antiviral assay in MT-2 human T-lymphoid cells exposed to HIV-1LAI, MTT readout; type: cell-based
[2] = target: HIV-1 protease (Human immunodeficiency virus type 1 group M subtype B, UniProt P04585); assay: HIV-1 protease enzyme inhibitory assay (protocol of Toth and Marshall); type: biochemical; settings: for fold change in Ki compared to inhibitor 35a: loss of enzyme inhibitory potency vs 35a
[3] = test system: HIV-1MDR/B (X4); assay: Antiviral activity in PHA-PBMs, p24 Gag, multidrug resistant clinical isolate; type: cell-based; settings: for EC50: PHA-PBMs, p24 Gag
Excerpt: (§1) Inhibitor 35a was examined for its activity against a panel of multidrug-resistant HIV-1 variants and compared it with that of other clinically available PIs including 1a. […] This inhibitor outperformed the clinically available PIs with high antiviral activity and seems to compare well with 1a, which currently stands as the leading PI for the treatment of drug-resistant HIV infection.

[4] = test system: HIV-1MDR/JSL (R5); assay: as above; type: cell-based; settings: for EC50: PHA-PBMs, p24 Gag
Excerpt: as §1

[5] = test system: HIV-1MRD/C (X4); assay: as above; type: cell-based
Excerpt: as §1

[6] = test system: HIV-1MDR/MM (R5); assay: as above; type: cell-based
Excerpt: as §1

[7] = test system: HIV-1MDR/TM (X4); assay: as above; type: cell-based
Excerpt: as §1

[8] = test system: HIV-1MDR/G (X4); assay: as above; type: cell-based
Excerpt: as §1

[9] = test system: HIV-1ERS104pre (X4); assay: Antiviral activity in PHA-PBMs, inhibition of p24 Gag protein production, wild-type clinical isolate; type: cell-based
Excerpt: as §1

[10] = Human immunodeficiency virus 1, T-lymphoid, read-out: Antiviral IC50, (nM)
[11] = Human immunodeficiency virus 1, T-lymphoid
[12] = Human immunodeficiency virus 1, MT2
[13] = Human immunodeficiency virus 1, MT2, MT-2 cells, 100 TCID50s of HIV-1LAI, MTT assay, read-out: IC50

SMILES: COc1ccc(S(=O)(=O)N(CC(C)C)C[C@@H](O)[C@H](Cc2ccccc2)NC(=O)O[C@H]2CCO[C@H]3OC[C@H](OC)[C@H]32)cc1
- IC50 [1, 10]: < 1 nM
- Ki [2]: < 0.1 nM

SMILES: COc1ccc(C[C@H](NC(=O)O[C@H]2CCO[C@H]3OCC[C@H]32)[C@H](O)CN(CC(C)C)S(=O)(=O)c2ccc(N)cc2)cc1 [compound 1]
- IC50 [1, 11]: 1 to 10 nM
- Ki [2]: < 1 nM

SMILES: COc1ccc(C[C@H](NC(=O)O[C@H]2CCO[C@H]3OC[C@H](O)[C@H]32)[C@H](O)CN(CC(C)C)S(=O)(=O)c2ccc(OC)cc2)cc1
- IC50 [1, 10]: < 10 nM
- Ki [2]: < 0.1 nM

SMILES: CC(C)CN(C[C@@H](O)[C@H](Cc1ccccc1)NC(=O)O[C@H]1CCO[C@H]2OCC[C@H]21)S(=O)(=O)c1ccc(N)cc1 [compound 36]
- IC50 [1, 12]: 6.5 nM
- Ki ([2]; read-out: Ki): 0.01 nM

SMILES: COc1cccc(C[C@H](NC(=O)O[C@H]2CCO[C@H]3OCC[C@H]32)[C@H](O)CN(CC(C)C)S(=O)(=O)c2ccc3nc(NC(C)C)sc3c2)c1
- IC50 [1, 10]: < 1 nM
- Ki [2]: < 0.1 nM

SMILES: CC(C)CN(C[C@@H](O)[C@H](Cc1ccccc1)NC(=O)O[C@H]1CCOC1)S(=O)(=O)c1ccc(N)cc1 [amprenavir, reference compound]
- IC50 [1, 13]: 30 nM

SMILES: CC(C)CN(C[C@@H](O)[C@H](Cc1ccccc1)NC(=O)O[C@H]1CCO[C@H]2OCC[C@H]21)S(=O)(=O)c1ccc2nc(NC(C)C)oc2c1
- IC50 ([1]; Human immunodeficiency virus 1, T-lymphoid, Examples Table 3, scored, read-out: Antiviral IC50): < 10 nM

SMILES: CC(C)CN(C[C@@H](O)[C@H](Cc1ccccc1)NC(=O)O[C@H]1CCO[C@H]2OCC(O)C21)S(=O)(=O)c1ccc2nc(NC(C)C)sc2c1 (stereo partly drawn)
- IC50 [1, 10]: < 10 nM
- Ki [2]: < 0.1 nM

SMILES: COc1ccc(C[C@H](NC(=O)O[C@H]2CCO[C@H]3OCC[C@H]32)[C@H](O)CN(C[C@H]2CCC(=O)N2)S(=O)(=O)c2ccc(OC)cc2)cc1 [compound 3]
- IC50 [1, 11]: 100 to 1000 nM
- Ki [2]: < 0.1 nM

SMILES: Cc1cccc(C)c1OCC(=O)N[C@@H](Cc1ccccc1)[C@@H](O)C[C@H](Cc1ccccc1)NC(=O)[C@H](C(C)C)N1CCCNC1=O [LPV]
- EC50 [3]: > 1000 nM
- EC50 [4]: > 1000 nM

SMILES: CC(C)CN(C[C@@H](O)[C@H](Cc1ccccc1)NC(=O)O[C@H]1CO[C@H]2OCC[C@H]21)S(=O)(=O)c1ccc(N)cc1 [drawing 189]
- IC50 [1, 10]: < 10 nM

SMILES: COc1ccc(S(=O)(=O)N(CC(C)C)C[C@@H](O)[C@H](Cc2ccccc2)NC(=O)O[C@H]2CCC[C@H]3CCC[C@H]32)cc1 [35e]
- IC50 [1, 12]: > 1000 nM
- antiviral activity ([1]; MT-2 cells, HIV-1LAI): no appreciable antiviral activity
- Ki ([2]; read-out: Ki): 9 nM

SMILES: COc1ccc(S(=O)(=O)N(CC(C)C)C[C@@H](O)[C@H](Cc2ccccc2)NC(=O)O[C@H]2CCO[C@H]3OC[C@H](O)[C@H]32)cc1
- IC50 [1, 10]: < 10 nM
- Ki [2]: < 0.1 nM

SMILES: COc1ccc(S(=O)(=O)N(CC(C)C)C[C@@H](O)[C@H](Cc2ccccc2)NC(=O)O[C@H]2CCO[C@H]3OC[C@H](OCc4ccccc4)[C@H]32)cc1
- IC50 [1, 10]: < 1 nM
- Ki [2]: < 1 nM

SMILES: CC(C)CN(C[C@@H](O)[C@H](Cc1ccccc1)NC(=O)O[C@H]1CCO[C@H]2OCC[C@H]21)S(=O)(=O)c1ccc2nc(NC(C)C)sc2c1
- IC50 [1, 10]: < 1 nM
- Ki [2]: < 0.1 nM

SMILES: COc1cccc(C[C@H](NC(=O)O[C@H]2CCO[C@H]3OCC[C@H]32)[C@H](O)CN(CC(C)C)S(=O)(=O)c2ccc3nc(NC(C)C)oc3c2)c1
- IC50 [1, 10]: < 10 nM
- Ki [2]: < 0.1 nM

SMILES: COc1ccc(C[C@H](NC(=O)O[C@H]2CCO[C@H]3OCC[C@H]32)[C@H](O)CN(CC(C)C)S(=O)(=O)c2ccc3nc(NC(C)C)oc3c2)cc1
- IC50 [1, 10]: < 10 nM
- Ki [2]: < 0.1 nM

SMILES: COc1ccc(S(=O)(=O)N(CC(C)C)C[C@@H](O)[C@H](Cc2ccccc2)NC(=O)O[C@H]2CCO[C@H]3CCC[C@H]32)cc1 [35d, (4S,4aR,7aS)-Octahydrocyclopenta[b]pyran-4-yl((2S,3R)-3-hydroxy-4-(N-isobutyl-4-methoxyphenylsulfonamido)-1-phenylbutan-2-yl)carbamate]
- Ki ([2]; read-out: Ki): 1.43 nM

SMILES: COc1ccc(C[C@H](NC(=O)O[C@H]2CCO[C@H]3OCC[C@H]32)[C@H](O)CN(C[C@H]2CCC(=O)N2)S(=O)(=O)c2ccc(N)cc2)cc1 [compound 4]
- IC50 [1, 11]: > 1000 nM
- Ki [2]: < 10 nM

SMILES: CC(C)(C)NC(=O)[C@@H]1C[C@@H]2CCCC[C@@H]2CN1C[C@@H](O)[C@H](Cc1ccccc1)NC(=O)[C@H](CC(N)=O)NC(=O)c1ccc2ccccc2n1 [saquinavir, reference compound]
- IC50 [1, 12]: 15 nM

SMILES: CC(C)CN(C[C@@H](O)[C@H](Cc1ccccc1)NC(=O)O[C@H]1CCO[C@H]2OCC[C@H]21)S(=O)(=O)c1ccc(CO)cc1 [compound 37]
- IC50 [1, 12]: 4.5 nM
- Ki ([2]; read-out: Ki): 0.085 nM

SMILES: COc1ccc(S(=O)(=O)N(CC(C)C)C[C@@H](O)[C@H](Cc2ccccc2)NC(=O)O[C@H]2CCO[C@H]3COC[C@H]32)cc1 [35f, (4S,4aS,7aR)-Hexahydro-2H-furo[3,4-b]pyran-4-yl((2S,3R)-3-hydroxy-4-(N-isobutyl-4-methoxyphenylsulfonamido)-1-phenylbutan-2-yl)carbamate]
- IC50 [1, 12]: > 1000 nM
- antiviral activity ([1]; MT-2 cells, HIV-1LAI): no antiviral activity
- protease inhibitory activity [2]: substantial loss of potency
- Ki ([2]; read-out: Ki): 5.3 nM

SMILES: COc1ccc(C[C@H](NC(=O)O[C@H]2CCO[C@H]3OCC[C@H]32)[C@H](O)CN(CC(C)C)S(=O)(=O)c2ccc(OC)cc2)cc1 [compound 2]
- IC50 [1, 11]: < 1 nM
- Ki [2]: < 0.1 nM

SMILES: COc1ccc(S(=O)(=O)N(CC(C)C)C[C@@H](O)[C@H](Cc2ccccc2)NC(=O)O[C@H]2CO[C@H]3OCC[C@H]3C2)cc1 [35g, (3aS,5R,7aR)-Hexahydro-2H-furo[2,3-b]pyran-5-yl((2S,3R)-3-hydroxy-4-(N-isobutyl-4-methoxyphenylsulfonamido)-1-phenylbutan-2-yl)carbamate]
- protease inhibitory activity [2]: substantial loss of protease inhibitory activity
- Ki ([2]; read-out: Ki): 0.11 nM

SMILES: COc1ccc(S(=O)(=O)N(CC(C)C)C[C@@H](O)[C@H](Cc2ccccc2)NC(=O)O[C@H]2CCC[C@H]3OCC[C@@H]23)cc1 [35c, (3aR,4S,7aR)-Octahydrobenzofuran-4-yl(2S,3R)-3-hydroxy-4-(N-isobutyl-4-methoxyphenylsulfonamido)-1-phenylbutan-2-yl carbamate]
- IC50 [1, 13]: 8 nM
- fold decrease in antiviral activity compared to inhibitor 35a ([1]; MT-2 cells, HIV-1LAI): 16 fold
- fold change in Ki compared to inhibitor 35a [2]: 2 fold
- Ki ([2]; read-out: Ki): 0.005 nM

SMILES: COc1ccc(S(=O)(=O)N(CC(C)C)C[C@@H](O)[C@H](Cc2ccccc2)NC(=O)O[C@@H]2CCO[C@@H]3OCC[C@@H]32)cc1 [35b, (3aR,4R,7aS)-Hexahydro-2H-furo[2,3-b]pyran-4-yl((2S,3R)-3-hydroxy-4-(N-isobutyl-4-methoxyphenylsulfonamido)-1-phenylbutan-2-yl)carbamate]
- IC50 [1, 12]: 19 nM
- IC50 ([1]; Human immunodeficiency virus 1, MT2, read-out: antiviral activity ID50): 19 nM
- fold change in Ki compared to inhibitor 35a [2]: > 20 fold
- Ki ([2]; read-out: Ki): 0.068 nM

SMILES: COC(=O)N[C@H](C(=O)N[C@@H](Cc1ccccc1)[C@@H](O)CN(Cc1ccc(-c2ccccn2)cc1)NC(=O)[C@@H](NC(=O)OC)C(C)(C)C)C(C)(C)C [ATV]
- EC50 ([5]; PHA-PBMs, p24 Gag): 39 ± 3 nM
- fold change of EC50 compared to wild-type HIV-1ERS104pre ([5]; number in parentheses): 14 fold
- EC50 ([6]; PHA-PBMs, p24 Gag): 205 ± 24 nM
- fold change of EC50 compared to wild-type HIV-1ERS104pre ([6]; number in parentheses): 76 fold
- EC50 [3]: 470 ± 7 nM
- fold change of EC50 compared to wild-type HIV-1ERS104pre ([3]; number in parentheses): 174 fold
- EC50 ([7]; PHA-PBMs, p24 Gag): 75 ± 3 nM
- fold change of EC50 compared to wild-type HIV-1ERS104pre ([7]; number in parentheses): 28 fold
- EC50 ([8]; PHA-PBMs, p24 Gag): 19 ± 8 nM
- fold change of EC50 compared to wild-type HIV-1ERS104pre ([8]; number in parentheses): 7 fold
- EC50 [4]: 293 ± 99 nM
- fold change of EC50 compared to wild-type HIV-1ERS104pre ([4]; number in parentheses): 109 fold
- EC50 [9]: 2.7 ± 0.6 nM

SMILES: CCNC1CO[C@@H]2OCC[C@H](OC(=O)N[C@@H](Cc3ccccc3)[C@H](O)CN(CC(C)C)S(=O)(=O)c3ccc4nc(NC(C)C)sc4c3)C12 (stereo partly drawn)
- IC50 [1, 10]: < 10 nM
- Ki [2]: < 0.1 nM
